The source made the active and inactive calls.
What was measured:
[1] = molecular target: T1, Mannose-6-phosphate isomerase (Homo sapiens, UniProt P34949); test: human PMI inhibitors, high substrate, primary screen, biochemical, fluorescence intensity, high mannose 6-phosphate (AID 1220)
T1 sequence (P34949 whole entry): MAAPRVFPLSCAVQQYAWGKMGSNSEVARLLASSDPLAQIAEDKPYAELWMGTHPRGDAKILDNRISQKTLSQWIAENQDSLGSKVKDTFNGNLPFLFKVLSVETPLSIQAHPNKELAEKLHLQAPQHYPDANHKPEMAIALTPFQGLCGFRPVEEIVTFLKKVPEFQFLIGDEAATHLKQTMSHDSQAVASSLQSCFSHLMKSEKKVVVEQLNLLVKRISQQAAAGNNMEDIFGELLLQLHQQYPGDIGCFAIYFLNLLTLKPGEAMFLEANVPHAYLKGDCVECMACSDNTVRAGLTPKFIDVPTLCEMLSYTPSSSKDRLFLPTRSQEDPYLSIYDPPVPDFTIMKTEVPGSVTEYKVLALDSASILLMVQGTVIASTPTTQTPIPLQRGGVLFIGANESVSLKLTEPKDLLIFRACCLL

[2] = molecular target: T2, Apoptotic protease-activating factor 1 (Homo sapiens, UniProt O14727); assay type: functional
T2 sequence (O14727 whole entry): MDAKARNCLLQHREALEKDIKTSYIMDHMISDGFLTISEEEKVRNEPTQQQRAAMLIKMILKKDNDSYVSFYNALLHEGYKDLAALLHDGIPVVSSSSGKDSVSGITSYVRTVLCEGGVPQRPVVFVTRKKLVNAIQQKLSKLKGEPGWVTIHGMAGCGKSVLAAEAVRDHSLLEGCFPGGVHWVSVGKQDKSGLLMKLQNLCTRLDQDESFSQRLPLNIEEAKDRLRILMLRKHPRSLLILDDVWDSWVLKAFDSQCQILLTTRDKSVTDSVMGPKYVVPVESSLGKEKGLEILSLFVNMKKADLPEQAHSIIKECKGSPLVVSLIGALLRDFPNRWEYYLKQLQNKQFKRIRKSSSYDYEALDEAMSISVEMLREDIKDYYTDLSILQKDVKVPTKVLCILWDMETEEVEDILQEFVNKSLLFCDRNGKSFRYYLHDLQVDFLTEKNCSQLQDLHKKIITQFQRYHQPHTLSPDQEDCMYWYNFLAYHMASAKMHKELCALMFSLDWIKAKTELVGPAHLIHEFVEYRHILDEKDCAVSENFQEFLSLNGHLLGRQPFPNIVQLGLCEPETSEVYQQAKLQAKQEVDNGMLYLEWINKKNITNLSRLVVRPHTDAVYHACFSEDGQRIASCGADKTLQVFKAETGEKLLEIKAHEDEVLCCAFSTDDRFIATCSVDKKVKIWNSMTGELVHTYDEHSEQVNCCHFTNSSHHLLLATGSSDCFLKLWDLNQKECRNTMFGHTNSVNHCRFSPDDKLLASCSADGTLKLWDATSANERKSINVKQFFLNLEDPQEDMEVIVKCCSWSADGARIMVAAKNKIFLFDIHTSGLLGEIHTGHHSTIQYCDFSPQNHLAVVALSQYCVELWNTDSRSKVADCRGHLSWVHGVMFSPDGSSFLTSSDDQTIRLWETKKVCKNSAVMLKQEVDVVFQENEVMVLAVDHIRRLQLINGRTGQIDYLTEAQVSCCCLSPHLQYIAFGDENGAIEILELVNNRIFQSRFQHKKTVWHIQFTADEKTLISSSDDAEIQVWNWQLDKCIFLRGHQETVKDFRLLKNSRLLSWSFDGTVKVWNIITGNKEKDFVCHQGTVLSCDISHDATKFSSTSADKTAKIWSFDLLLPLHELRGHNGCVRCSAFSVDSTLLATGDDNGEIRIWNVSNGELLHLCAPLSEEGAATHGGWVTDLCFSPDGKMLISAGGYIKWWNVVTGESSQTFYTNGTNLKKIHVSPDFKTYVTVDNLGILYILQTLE

Caspase-6 = molecular target: T3, Caspase-6 (Homo sapiens, UniProt P55212); test: human caspase-6 inhibitors, dose response, biochemical, VEID-R110 fluorescence, cherry-pick (AID 720632)
T3 sequence (P55212 whole entry): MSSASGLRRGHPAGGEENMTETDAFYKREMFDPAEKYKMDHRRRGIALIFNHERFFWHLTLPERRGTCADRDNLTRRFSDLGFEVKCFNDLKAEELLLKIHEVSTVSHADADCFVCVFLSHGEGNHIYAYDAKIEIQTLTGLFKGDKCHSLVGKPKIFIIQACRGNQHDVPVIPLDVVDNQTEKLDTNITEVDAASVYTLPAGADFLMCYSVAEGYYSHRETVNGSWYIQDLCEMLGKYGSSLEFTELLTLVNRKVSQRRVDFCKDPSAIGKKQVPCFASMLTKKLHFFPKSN

Caspase-9 = Caspase-9 (Homo sapiens, UniProt P55211); test: caspase-9 enzyme inhibition, dose response, selectivity assay for caspase-6 inhibitor project, biochemical, fluorescence, plate reader, cherry-picked samples (AID 743293)
Caspase-7 = Caspase-7 (Homo sapiens, UniProt P55210); test: human caspase-7 inhibitors, dose response, selectivity assay for caspase-6 inhibitor project, biochemical, DEVD-R110 fluorescence, cherry-pick (AID 743295)
Caspase-8 = Caspase-8 (Homo sapiens, UniProt Q14790); test: caspase-8 inhibition counter-screen, dose response, selectivity assay for caspase-6 inhibitor project, biochemical, Z-IETD-R110 fluorescence, cherry-picked samples (AID 743294)
[3] = TRPM1 promoter luciferase reporter signal decrease, dose response, MITF inhibitor project, cell-based, SK-MEL-5, dry powder, set 9 (AID 651588); assay type: functional
[4] = MITF Orthogonal Assay: MALME3 CTG Assay Measured in Cell-Based System Using Plate Reader - 2084-04_Inhibitor_Dose_DryPowder_Activity_Set6.; assay type: functional; settings: MALME-3
[5] = SK-MEL-5 parental cell viability reduction, dose response, orthogonal assay for MITF inhibitor project, CellTiter-Glo luminescence, dry powder, set 8 (AID 651586); assay type: functional, cell-based
[6] = MALME3 melanoma cell viability reduction, dose response, orthogonal assay for MITF inhibitor project, CellTiter-Glo luminescence, dry powder, set 5 (AID 651584); assay type: functional, cell-based; settings: MALME-3
[7] = MITF Orthogonal Assay: SK-MEL-5 CTG Assay Measured in Cell-Based System Using Plate Reader - 2084-02_Inhibitor_Dose_DryPowder_Activity_Set7.; assay type: functional
[8] = MITF: Counter assay: A375 proliferation Measured in Cell-Based System Using Plate Reader - 2084-03_Inhibitor_Dose_DryPowder_Activity_Set8.; assay type: functional; settings: A-375
[9] = A375 melanoma cell viability loss, dose response, counter-screen for MITF modulator project, CellTiter-Glo luminescence, dry powder, set 9 (AID 651591); assay type: functional, cell-based; settings: A-375
[10] = TRPM1 promoter luciferase reporter signal decrease, dose response, MITF inhibitor project, cell-based, SK-MEL-5, dry powder, set 8 (AID 624430); assay type: functional
[11] = molecular target: T4, Corticotropin-releasing factor receptor 2/Corticotropin-releasing factor-binding protein (Homo sapiens, UniProt P24387+Q13324); test: Dose Response confirmation of uHTS hits for small molecule antagonists of the CRF-binding protein and CRF-R2 receptor complex.; assay type: functional; settings: read-out: IC50_Mean
T4 sequence (Q13324 whole entry): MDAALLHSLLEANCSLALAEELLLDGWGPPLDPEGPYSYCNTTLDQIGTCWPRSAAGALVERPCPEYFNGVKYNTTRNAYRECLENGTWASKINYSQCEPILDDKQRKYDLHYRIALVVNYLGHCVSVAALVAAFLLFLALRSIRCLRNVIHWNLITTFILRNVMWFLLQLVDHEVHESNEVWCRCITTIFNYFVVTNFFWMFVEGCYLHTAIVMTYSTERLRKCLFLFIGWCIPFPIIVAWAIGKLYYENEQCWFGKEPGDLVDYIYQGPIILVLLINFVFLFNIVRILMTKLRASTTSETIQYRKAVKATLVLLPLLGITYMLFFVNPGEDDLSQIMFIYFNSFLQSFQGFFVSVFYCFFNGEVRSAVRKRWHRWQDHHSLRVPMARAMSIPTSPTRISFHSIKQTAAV
T4 sequence (P24387 whole entry): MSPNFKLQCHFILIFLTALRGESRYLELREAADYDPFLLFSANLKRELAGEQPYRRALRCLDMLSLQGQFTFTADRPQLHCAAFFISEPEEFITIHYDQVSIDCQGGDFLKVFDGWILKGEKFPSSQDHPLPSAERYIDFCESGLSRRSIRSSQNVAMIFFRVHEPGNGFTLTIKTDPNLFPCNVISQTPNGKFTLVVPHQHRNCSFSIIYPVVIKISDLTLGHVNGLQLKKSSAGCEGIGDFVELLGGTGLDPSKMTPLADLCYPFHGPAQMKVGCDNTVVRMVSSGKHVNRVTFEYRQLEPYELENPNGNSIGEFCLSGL

[12] = molecular target: DNA (cytosine-5)-methyltransferase 1 (Homo sapiens, UniProt P26358); test: DNMT1 methyltransferase inhibitors, confirmation, biochemical, fluorescent molecular beacon (AID 602386); assay type: functional
[13] = molecular target: T4, Corticotropin-releasing factor receptor 2/Corticotropin-releasing factor-binding protein; test: activators of CRF receptor 2 with binding protein – uHTS hits, confirmation (AID 602473); assay type: functional; settings: read-out: EC50_Mean
[14] = molecular target: T5, Small ubiquitin-related modifier 2 (Homo sapiens, UniProt P61956); test: SUMO2–SIM peptide binding inhibitors, dose response, selectivity assay for SUMO1 interaction inhibitor project, biochemical, fluorescence polarization, uHTS hits (AID 624385); assay type: functional; settings: read-out: IC50_Mean
[15] = CRF-BP/CRF-R2 complex antagonists, dose response, cell-based, uHTS hits, 384-well (AID 651639); assay type: functional, Homo sapiens; settings: read-out: IC50_Mean
[16] = molecular target: T6, Small ubiquitin-related modifier 1 (Homo sapiens, UniProt P63165); test: inhibitors of SUMO1 peptide binding, dose response, biochemical, fluorescence polarization, uHTS hits (AID 624382); assay type: functional; settings: read-out: IC50_Mean
[17] = molecular target: T5, Small ubiquitin-related modifier 2; test: inhibitors of SUMO2 protein-protein interaction, dose response, selectivity assay for SUMO1 interaction inhibitor project, biochemical, FRET, human SUMO2, uHTS hits (AID 624384); assay type: functional; settings: read-out: IC50_Mean
Fatty acid synthase [18] = molecular target: T7, Fatty acid synthase (Homo sapiens, UniProt P49327); test: FAS thioesterase domain inhibitors, dose response, biochemical, endpoint fluorescence intensity, uHTS hits (AID 624327); assay type: functional;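 further: fluorescence from hydrolysis of an O-methyl fluorescein acyl ester substrate by the enzyme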
[19] = molecular target: T6, Small ubiquitin-related modifier 1; test: inhibitors of SUMO1 partner interactions, dose response, biochemical, FRET (AID 624383); assay type: functional; settings: read-out: IC50_Mean
Fatty acid synthase [20] = molecular target: T7, Fatty acid synthase; test: FAS thioesterase domain inhibitors, dose response, biochemical, kinetic fluorescence intensity (AID 624326); assay type: functional;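 further: rate of fluorescence rise from hydrolysis of a fluorogenic O-methyl fluorescein ester substrate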
[21] = molecular target: NAD-dependent protein deacylase sirtuin-5, mitochondrial (Homo sapiens, UniProt Q9NXA8); test: SIRT5 desuccinylase inhibitors, dose response, biochemical, fluorescence imaging, cherry-pick, set 5 (AID 720591);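 further: desuccinylation of succinyl peptide AMC substrate read as fluorescence after trypsin release; potency of inhibitors that lower fluorescence and may act on trypsin instead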
[22] = A549 cell cytotoxicity, dose response, cytotoxicity control, 24 h, CellTiter-Glo luminescence, cherry-picks (AID 1053115); assay type: functional, cell-based; settings: A549, 24 h

T5 sequence (P61956 whole entry): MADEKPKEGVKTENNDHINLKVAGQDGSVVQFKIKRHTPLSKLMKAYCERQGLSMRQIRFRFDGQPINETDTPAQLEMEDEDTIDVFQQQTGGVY
T6 sequence (P63165 whole entry): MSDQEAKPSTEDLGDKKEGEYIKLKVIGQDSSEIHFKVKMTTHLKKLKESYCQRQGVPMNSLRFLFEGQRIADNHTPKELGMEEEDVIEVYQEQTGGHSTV
T7 sequence (P49327 whole entry, the tested form may be a part): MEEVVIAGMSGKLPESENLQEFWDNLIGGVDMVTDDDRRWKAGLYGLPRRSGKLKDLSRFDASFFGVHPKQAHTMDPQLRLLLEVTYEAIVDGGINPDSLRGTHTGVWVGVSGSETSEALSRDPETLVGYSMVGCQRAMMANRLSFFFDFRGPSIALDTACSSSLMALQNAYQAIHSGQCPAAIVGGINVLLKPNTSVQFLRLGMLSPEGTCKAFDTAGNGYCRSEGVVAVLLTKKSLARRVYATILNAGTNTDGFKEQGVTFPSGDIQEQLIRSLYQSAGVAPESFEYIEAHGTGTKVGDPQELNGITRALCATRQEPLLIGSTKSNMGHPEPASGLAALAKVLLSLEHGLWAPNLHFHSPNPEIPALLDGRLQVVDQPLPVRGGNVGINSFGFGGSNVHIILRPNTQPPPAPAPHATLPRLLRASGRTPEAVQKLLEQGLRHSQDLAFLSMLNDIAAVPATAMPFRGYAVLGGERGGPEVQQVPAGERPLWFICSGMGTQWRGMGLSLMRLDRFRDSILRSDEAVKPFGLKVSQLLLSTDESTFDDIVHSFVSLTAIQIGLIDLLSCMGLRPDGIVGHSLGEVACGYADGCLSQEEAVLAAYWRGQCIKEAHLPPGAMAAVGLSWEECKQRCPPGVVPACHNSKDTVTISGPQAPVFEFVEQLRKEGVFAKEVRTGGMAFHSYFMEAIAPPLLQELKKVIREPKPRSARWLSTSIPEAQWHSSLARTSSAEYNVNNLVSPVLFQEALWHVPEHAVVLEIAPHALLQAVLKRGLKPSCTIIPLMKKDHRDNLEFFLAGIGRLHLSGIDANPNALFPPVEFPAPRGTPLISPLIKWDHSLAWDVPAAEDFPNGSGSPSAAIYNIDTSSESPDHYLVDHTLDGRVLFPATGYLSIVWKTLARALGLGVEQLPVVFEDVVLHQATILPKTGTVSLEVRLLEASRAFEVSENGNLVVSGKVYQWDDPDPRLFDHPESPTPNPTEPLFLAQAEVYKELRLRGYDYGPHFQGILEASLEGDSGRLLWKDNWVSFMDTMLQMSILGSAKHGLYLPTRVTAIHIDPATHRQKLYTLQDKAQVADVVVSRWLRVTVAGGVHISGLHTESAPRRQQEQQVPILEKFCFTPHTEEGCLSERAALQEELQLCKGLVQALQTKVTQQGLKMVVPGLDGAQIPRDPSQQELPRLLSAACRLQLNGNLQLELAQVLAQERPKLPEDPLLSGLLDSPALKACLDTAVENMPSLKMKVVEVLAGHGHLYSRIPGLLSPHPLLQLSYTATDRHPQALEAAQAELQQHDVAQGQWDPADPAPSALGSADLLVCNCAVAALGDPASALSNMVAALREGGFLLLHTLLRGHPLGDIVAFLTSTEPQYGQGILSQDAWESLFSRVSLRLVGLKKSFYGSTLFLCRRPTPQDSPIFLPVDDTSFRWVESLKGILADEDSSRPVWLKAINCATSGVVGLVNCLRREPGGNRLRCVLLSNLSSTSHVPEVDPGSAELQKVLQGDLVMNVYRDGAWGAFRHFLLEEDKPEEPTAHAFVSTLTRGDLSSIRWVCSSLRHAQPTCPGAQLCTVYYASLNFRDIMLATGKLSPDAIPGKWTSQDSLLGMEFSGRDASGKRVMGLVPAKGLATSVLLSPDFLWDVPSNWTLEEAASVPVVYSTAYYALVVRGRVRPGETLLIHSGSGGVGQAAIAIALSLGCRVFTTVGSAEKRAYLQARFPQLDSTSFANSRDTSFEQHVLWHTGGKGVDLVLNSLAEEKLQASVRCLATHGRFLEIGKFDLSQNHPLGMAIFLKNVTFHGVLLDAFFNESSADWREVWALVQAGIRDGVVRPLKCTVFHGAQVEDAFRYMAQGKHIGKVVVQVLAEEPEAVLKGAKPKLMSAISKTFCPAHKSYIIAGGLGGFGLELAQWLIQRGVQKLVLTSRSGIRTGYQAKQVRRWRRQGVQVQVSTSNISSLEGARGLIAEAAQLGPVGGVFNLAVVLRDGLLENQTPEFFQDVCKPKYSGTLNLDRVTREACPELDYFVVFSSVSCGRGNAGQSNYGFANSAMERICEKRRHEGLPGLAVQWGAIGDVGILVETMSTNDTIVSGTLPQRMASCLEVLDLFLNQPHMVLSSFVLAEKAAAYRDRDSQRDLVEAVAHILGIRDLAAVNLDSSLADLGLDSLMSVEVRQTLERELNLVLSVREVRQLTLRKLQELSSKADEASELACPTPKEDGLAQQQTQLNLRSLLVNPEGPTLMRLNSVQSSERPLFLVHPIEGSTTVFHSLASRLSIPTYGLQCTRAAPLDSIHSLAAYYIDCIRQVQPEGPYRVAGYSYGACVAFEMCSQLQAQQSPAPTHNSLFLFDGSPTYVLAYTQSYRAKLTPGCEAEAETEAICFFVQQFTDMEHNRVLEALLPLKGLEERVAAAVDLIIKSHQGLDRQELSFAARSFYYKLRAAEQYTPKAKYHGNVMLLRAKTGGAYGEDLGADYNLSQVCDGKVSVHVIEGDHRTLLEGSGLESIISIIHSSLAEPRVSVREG
Chain of NAD-dependent protein deacylase sirtuin-5, mitochondrial (Q9NXA8 whole entry): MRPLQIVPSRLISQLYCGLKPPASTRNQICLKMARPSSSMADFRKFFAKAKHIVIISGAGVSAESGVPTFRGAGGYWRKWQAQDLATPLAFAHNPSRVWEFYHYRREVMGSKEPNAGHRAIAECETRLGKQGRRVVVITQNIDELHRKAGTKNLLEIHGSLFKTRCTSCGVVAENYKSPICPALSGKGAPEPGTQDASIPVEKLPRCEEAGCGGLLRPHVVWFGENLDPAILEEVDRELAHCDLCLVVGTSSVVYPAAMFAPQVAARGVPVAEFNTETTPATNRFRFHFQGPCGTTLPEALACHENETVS
Chain of Caspase-9 (P55211 1-315 limits assumed): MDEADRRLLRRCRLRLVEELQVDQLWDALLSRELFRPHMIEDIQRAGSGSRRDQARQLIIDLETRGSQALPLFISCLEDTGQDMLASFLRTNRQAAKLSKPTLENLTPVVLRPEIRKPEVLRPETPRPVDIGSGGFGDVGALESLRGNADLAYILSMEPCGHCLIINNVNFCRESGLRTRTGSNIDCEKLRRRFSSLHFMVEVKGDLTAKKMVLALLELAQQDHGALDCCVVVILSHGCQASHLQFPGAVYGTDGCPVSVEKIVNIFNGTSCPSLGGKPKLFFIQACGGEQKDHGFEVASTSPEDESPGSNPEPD
Chain of Caspase-9 (P55211 331-416 limits assumed): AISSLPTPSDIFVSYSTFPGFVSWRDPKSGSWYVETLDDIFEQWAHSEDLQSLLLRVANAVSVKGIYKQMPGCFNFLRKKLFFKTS
Chain of Caspase-7 (P55210 24-198 limits assumed): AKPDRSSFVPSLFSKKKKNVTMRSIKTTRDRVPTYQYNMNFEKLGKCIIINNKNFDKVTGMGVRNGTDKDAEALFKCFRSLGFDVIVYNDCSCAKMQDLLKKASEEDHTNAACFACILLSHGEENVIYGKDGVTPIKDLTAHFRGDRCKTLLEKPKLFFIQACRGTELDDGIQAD
Chain of Caspase-7 (P55210 207-303 limits assumed): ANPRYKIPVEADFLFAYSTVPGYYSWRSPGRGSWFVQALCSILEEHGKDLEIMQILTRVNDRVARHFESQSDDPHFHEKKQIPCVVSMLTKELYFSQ
Chain of Caspase-8 (Q14790 217-374 limits assumed): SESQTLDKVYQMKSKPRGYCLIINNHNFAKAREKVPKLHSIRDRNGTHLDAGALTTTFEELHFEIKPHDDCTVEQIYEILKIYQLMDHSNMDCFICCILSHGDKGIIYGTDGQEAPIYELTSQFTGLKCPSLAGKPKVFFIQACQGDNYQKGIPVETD
Chain of Caspase-8 (Q14790 385-479 limits assumed): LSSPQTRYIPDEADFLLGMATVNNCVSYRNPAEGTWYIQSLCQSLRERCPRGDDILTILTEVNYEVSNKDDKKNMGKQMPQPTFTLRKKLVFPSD

With `CCOc1c(O)ccc(/C=C2\SC(=S)NC2=O)c1[N+](=O)[O-]` the IC50 [1] was > 50 µM (not active), the IC50 [2] was 15.8 µM (active) and the AC50 (Caspase-6) was 4.1 µM (active). For the same compound, the AC50 (Caspase-9) was 53.6 µM (active), the AC50 (Caspase-7) was 25.5 µM (active) and the AC50 (Caspase-8) was > 70 µM (inactive).
For `O=C1C(Nc2cccc(Cl)c2)=C(N2CCCC2)C(=O)c2ccccc21`, the AC50 [3] was 46.8 µM (active), the AC50 [4] was > 70 µM (inactive) and the AC50 [5] was > 70 µM (inactive). The AC50 [6] was > 70 µM (inactive), the AC50 [7] was 5.52 µM (active) and the AC50 [8] was > 70 µM (inactive). For the same compound, the AC50 [9] was > 70 µM (inactive) and the AC50 [10] was 8.39 µM (active).
For `COc1cc(CCc2ccccc2)c(C(=O)O)c(O)c1C/C=C(/C)CCC=C(C)C`, the IC50 [11] was < 0.368 µM (active), the IC50 [12] was 3.5 µM (active) and the EC50 [13] was > 53 µM (inactive). For the same compound, the IC50 [14] was 28.8 µM (inactive), the IC50 [15] was 3.79 µM (active) and the IC50 [16] was 17.8 µM (active). For the same compound, the IC50 [17] was 15.5 µM (active), the IC50 (Fatty acid synthase [18]) was 8.25 µM (active) and the IC50 [19] was 14.4 µM (active). For the same compound, the IC50 (Fatty acid synthase [20]) was 8.42 µM (active) and the AC50 [21] was 15.7 µM (active).
For `CCOC(=O)[C@@H]1[C@@H]2C=C[C@]3(O2)[C@H](C(=O)NCc2ccccc2)N(CCCCCCO)C(=O)[C@@H]13`, the AC50 [22] was 48.1 µM (active).

Source: ChEMBL document CHEMBL1201862, “PubChem BioAssay data set” (2004)
